Experimental data taken from patent publication US20220296623A1, “REDUCED NICOTINAMIDERIBOSIDES FOR TREATING OR PREVENTING KIDNEY DISEASE” (SOCIETE DES PRODUITS NESTLE S.A., priority 2019, published 2022).

Tests used:
[1] = biological target: NAMPT (Mus musculus, UniProt Q99KQ4); assay: NRH action in presence of NAMPT inhibitor FK866; format: cell-based; details: FK866, a NAMPT inhibitor
[2] = system: NAD+ levels in liver, muscle and kidney; assay: Tissue NAD+ levels after intraperitoneal injection of NR or NRH; format: in vivo, mice; details: IP 500 mg/kg, after 1 h
Description: The above results prompted us to test whether NRH could act as an effective NAD+ precursor in vivo. For this, we first intraperitoneally (IP) injected mice with either NR or NRH (500 mg/kg).

[3] = system: NAD+ levels in liver, skeletal muscle and kidney; assay: Tissue NAD+ levels after oral gavage of NR or NRH; format: in vivo, C57BI/6NTac mice
Description: 8 week-old C57BI/6NTac mice were orally gavaged with either saline (as vehicle), NR (500 mg/kg) or NRH (500 mg/kg). After 1 hour, liver, skeletal muscle and kidney NAD^+ levels were evaluated. All results are expressed as mean +/−SEM of n=5 mice per group. * indicates statistical difference at p<0.05 vs. vs. saline-treated mice. # indicates statistical difference at p<0.05 vs. NR treated mice.
(§1) Oral administration of NRH led to very similar results to those observed after IP administration. […] In contrast, NR levels were undetectable at 1 h after NR administration. As expected, NR treatment led to large increases in circulating NAM, which where ˜4-fold higher than those observed after NRH treatment.

[4] = system: INS1-cells; assay: NAD+ levels in INS1-cells after NRH treatment; format: cell-based
Description: (§2) The ability of NRH to potently increase NAD+ was tested as well in other cell type models.

[5] = system: cisplatin-induced acute kidney injury; format: in vivo, C57BI/6NTac mice
Description: Simultaneously, mice were intraperitoneally injected with PBS (as vehicle) or NRH (250 mg/kg). PBS or NRH was injected at 24, 48 and 72 h after the initiation of the experiment. Kidneys of the mice were harvested, 4 h after the last injection, and NAD+ levels were analyzed in the kidney through mass spectrometry. All results are expressed as mean +/−SEM of n=5 mice per group. * indicates statistical difference at p<0.05 vs. vs. respective saline-treated mice
FIG. 7. […] Simultaneously, mice were intraperitoneally injected or not with PBS (as vehicle) or NRH (250 mg/kg) at 24, 48 and 72 h after the initiation of the experiment. Mice were sacrificed 4 h after the last injection, and plasma was collected to measure blood urea nitrogen levels. All results are expressed as mean +/−SEM of n=5 mice per group. * indicates statistical difference at p<0.05 vs. vs. respective saline-treated mice
Simultaneously, mice were intraperitoneally injected or not with PBS (as vehicle) or NRH (250 mg/kg). Urine was collected 24 h later to evaluate urea levels by NMR. All results are expressed as mean +/−SEM of n=5 mice per group. * indicates statistical difference at p<0.05 vs. vs. respective saline-treated mice.
Simultaneously, mice were intraperitoneally injected or not with PBS (as vehicle) or NRH (250 mg/kg). PBS or NRH were then injected at 24, 48 and 72 h after the initiation of the experiment. Mice were sacrificed 4 h after the last injection, and kidneys were fixed in OCT and used for immunohistochemistry against cleaved caspase 3. The cleaved caspase 3 staining was then quantified against the total area, using 10 images per mouse, 5 mice per group. All results are expressed as mean +/−SEM. * indicates statistical difference at p<0.05 vs. vs. respective saline-treated mice.
Simultaneously, mice were intraperitoneally injected or not with PBS (as vehicle) or NRH (250 mg/kg). PBS or NRH were then injected at 24, 48 and 72 h after the initiation of the experiment. 4 h after the last injection, and kidneys were obtained to isolate mRNA and analyze by qPCR makers of renal dysfunction (TGF-b1), glomerular dysfunction (fibronectin), apoptosis (BAX) and ER stress (BIP). All values are expressed as mean +/−SEM of n=4 mice per group. * indicates statistical difference at p<0.05 vs. respective vehicle-injected mice. # indicates statistical difference at p<0.05 vs. the respective mice in the control group.
Kidneys were harvested 4 hrs after the last NRH injection.

[6] = system: C2C12 myotubes; assay: NAD+ levels in C2C12 myotubes after NRH treatment; format: cell-based
Description: as §2

[7] = system: 3T3 fibroblasts; assay: NAD+ levels in 3T3 fibroblasts after NRH treatment; format: cell-based
Description: as §2

[8] = design: species or system mice; details: mouse, in vivo, po
Excerpt: Levels of NRH and other NAD-related metabolites in biological samples were obtained by using a cold liquid-liquid extraction using a mixture of methanol:water:chloroform in 5:3:5 (v/v), from which the polar phase was recovered for hydrophilic interaction ultra-high performance liquid chromatography mass spectrometry (UHPLC-MS) analysis. The UHPLC consisted of a binary pump, a cooled autosampler, and a column oven (DIONEX Ultimate 3000 UHPLC+ Focused, Thermo Scientific), connected to a triple quadrupole spectrometer (TSQ Vantage, Thermo Scientific) equipped with a heated electrospray ionisation (H-ESI) source. Of each sample, 2 μL were injected into the analytical column (2.1 mm×150 mm, 5 μm pore size, 200 Å HILICON iHILIC®-Fusion(P)), guarded by a pre-column (2.1 mm×20 mm, 200 Å HILICON iHILIC®-Fusion(P) Guard Kit) operating at 35° C. The mobile phase (10 mM ammonium acetate at pH 9, A, and acetonitrile, B) was pumped at 0.25 mL/min flow rate over a linear gradient of decreasing organic solvent (0.5-16 min, 90-25% B), followed by re-equilibration for a total run time of 30 min. The MS operated in positive mode at 3500 V with multiple reaction monitoring (MRM). The software Xcalibur v4.1.31.9 (Thermo Scientific) was used for instrument control, data acquisition and processing. Retention time and mass detection was confirmed by authentic standards.
as §1

[9] = cisplatin 20 mg/kg, NRH 250 mg/kg
[10] = kidney qPCR, cisplatin plus NRH

NAMPT, sequence (Q99KQ4 whole entry): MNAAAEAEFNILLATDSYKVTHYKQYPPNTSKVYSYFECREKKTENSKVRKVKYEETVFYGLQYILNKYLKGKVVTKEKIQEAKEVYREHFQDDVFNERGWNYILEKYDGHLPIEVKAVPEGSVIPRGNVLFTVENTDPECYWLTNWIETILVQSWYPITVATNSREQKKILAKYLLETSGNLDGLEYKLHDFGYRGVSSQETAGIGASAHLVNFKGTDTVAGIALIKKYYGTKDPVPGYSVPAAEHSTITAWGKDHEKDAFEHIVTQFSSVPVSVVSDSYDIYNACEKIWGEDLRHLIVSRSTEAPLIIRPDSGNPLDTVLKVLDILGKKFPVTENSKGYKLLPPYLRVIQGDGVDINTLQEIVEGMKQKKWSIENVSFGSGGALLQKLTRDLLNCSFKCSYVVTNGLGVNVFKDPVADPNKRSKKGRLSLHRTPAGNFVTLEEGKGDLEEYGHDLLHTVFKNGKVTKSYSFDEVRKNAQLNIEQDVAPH

NC(=O)C1=CN([C@@H]2O[C@H](CO)[C@@H](O)[C@H]2O)C=CC1 [NRH, dihydro-1-beta-D-ribofuranosyl-3-pyridinecarboxamide]
dependence of NRH action on NAMPT [1]: NAMPT-independent | NAD+ levels in kidney [2]: increased NAD+ levels | NAD+ levels in liver [2]: increased NAD+ levels | NAD+ levels in muscle [2]: increased NAD+ levels | effect on hepatic NAD+ levels ([3]; oral administration, compared with NR): more potent effect on hepatic NAD+ levels than NR | NAD+ precursor activity in liver, muscle and kidney ([3]; oral gavage 500 mg/kg, after 1 hour (FIG. 5)): orally active NAD+ precursor in liver, muscle and kidney | NAD+ levels [4]: highly elevated NAD+ levels | NAD+ levels in kidney above control ([5]; 4 h after NRH supplementation): did not observe higher NAD^+ levels | renal NADH levels ([5]; cisplatin 20 mg/kg IP, NRH 250 mg/kg IP at 0, 24, 48, 72 h, kidneys 4 h after last injection): prevented the drop in renal NAD^+ and NADH levels | Me2PY and Me4PY levels in urine [5, 9]: further increased | methyl-NAM levels in kidney [5, 9]: further increased methyl-NAM levels in kidney | PARP activity ([5]; cisplatin mice treated with NRH): higher | kidney structure (tubular necrosis, glomeruli dilatation, inflammation, cast formation) ([5]; histology, cisplatin 20 mg/kg, NRH 250 mg/kg): largely prevented | presence of kidney casts ([5]; histology, cisplatin plus NRH): major decrease in the presence of kidney casts | renal cell apoptosis (cleaved caspase 3 staining) ([5]; kidney immunohistochemistry, cisplatin plus NRH (FIG. 9)): protects against cisplatin-induced renal cell apoptosis | BAX mRNA (marker of apoptosis) [5, 10]: prevented cisplatin-induced increases | BIP mRNA (marker of ER stress) [5, 10]: prevented cisplatin-induced increases | TGF-β1 expression [5, 10]: prevent the increase in TGF-β1 expression | fibronectin mRNA (marker of glomerular dysfunction) [5, 10]: prevented cisplatin-induced increases | NAD+ levels [6]: highly elevated NAD+ levels | NAD+ levels [7]: highly elevated NAD+ levels | NRH concentration in plasma [8]: 11.16 ± 1.74 µM | administered compound in plasma [8]: detectable in plasma
